# Measured values from patent US7999137B2, “Pesticide bi-phenyl-amidine derivatives” (Bayer Cropscience AG, priority 2006, dated 2011).
# Assay: logP by HPLC on reversed-phase column (C 18), EEC Directive 79/831 Annex V.A8
# Format: physicochemical
# Details: HPLC reversed-phase C 18; 40° C.; 0.1% aqueous formic acid and acetonitrile, linear gradient 10% to 90% acetonitrile
# Procedure: Temperature: 40° C.; Mobile phases: 0.1% aqueous formic acid and acetonitrile; linear gradient from 10% acetonitrile to 90% acetonitrile.
# Calibration was carried out using unbranched alkan-2-ones (comprising 3 to 16 carbon atoms) with known logP values (determination of the logP values by the retention times using linear interpolation between two successive alkanones).
row,Structure (SMILES),log p (HCOOH)
1,CCN(C)C=Nc1ccc(-c2ccc(OCc3ccccc3)cc2)cc1C(F)(F)F [Compound 91],2.43
2,CCN(C)C=Nc1ccc(-c2ccc(COC)cc2)cc1C [Compound 37],1.59
3,CCN(C)C=Nc1ccc(-c2ccc(Oc3ccccc3)cc2)cc1C(F)(F)F [Compound 89],2.65
4,CCN(C)C=Nc1cc(C)c(-c2ccc(Cl)c(C(F)(F)F)c2)cc1C [Compound 17],2.40
5,CCN(C)C=Nc1ccc(-c2ccc(C=NOC)cc2)cc1C [Compound 30],1.94
6,CC(C)N(C)C=Nc1ccc(-c2cccc(Cl)c2)c(Cl)c1 [Compound 101],2.04
7,CCN(C)C=Nc1ccc(-c2cc(OC)c(OC)c(OC)c2)cc1C(F)(F)F [Compound 75],1.79
8,CCN(C)C=Nc1ccc(-c2ccc(Cl)c(Cl)c2)cc1Cl [Compound 66],2.25
9,CCN(C)C=Nc1cc(C)c(-c2ccc(C[Si](C)(C)C)cc2)cc1C [Compound 166],3.18
10,CCN(C)C=Nc1ccc(-c2ccc(F)c(F)c2)cc1F [Compound 84],1.68
11,CCN(C)C=Nc1cc(C)c(-c2ccc(C)c(Cl)c2)cc1C [Compound 146],2.37
12,CCN(C)C=Nc1ccc(-c2ccc(Oc3ccccc3)cc2)cc1C [Compound 35],2.41
13,CCN(C)C=Nc1ccc(-c2ccc(F)c(Cl)c2)cc1C [Compound 5],2.00
14,CCN(C)C=Nc1ccc(-c2ccc(F)c(C)c2)cc1C [Compound 33],2.04
15,CCc1cc(-c2ccc(C(C)(C)C)cc2)ccc1N=CN(C)CC [Compound 7],2.66
16,CCN(C)C=Nc1ccc(-c2ccc(F)c(Cl)c2)cc1Cl [Compound 3],1.92
17,CCN(C)C=Nc1ccc(-c2ccc(C#N)cc2)cc1C [Compound 130],1.54
18,Cc1cc(-c2ccc(C(F)(F)F)c(Cl)c2)c(C)cc1N=CN1CCCCC1 [Compound 145],2.78
19,CCN(C)C=Nc1ccc(-c2ccc(Cl)cc2Cl)cc1Cl [Compound 69],2.32
20,CCN(C)C=Nc1cc(C)c(-c2ccc(C(C)(C)C)cc2)cc1Cl [Compound 106],2.71
21,Cc1cc(-c2ccc(C(C)(C)C)cc2)c(C)cc1N=CN(C)C(C)C [Compound 161],2.77

row,Structure (SMILES),log p (HCOOH)
1,CCN(C)C=Nc1cc(C)c(-c2ccc(Cl)c(Cl)c2)cc1C [Compound 44],2.27
2,CCc1cc(-c2ccc(Cl)c(F)c2)ccc1N=CN(C)CC [Compound 52],2.31
3,CCN(C)C=Nc1ccc(-c2ccc(F)c(C)c2)cc1C(F)(F)F [Compound 82],2.20
4,C=CCN(C)C=Nc1cc(C)c(-c2ccc(C(C)=NOCC)cc2)cc1C [Compound 140],2.60
5,CCC(C)c1ccc(-c2cc(C)c(N=CN(C)CC)cc2C)cc1 (stereo not shown) [Compound 163],2.92
6,CCN(C)C=Nc1ccc(-c2ccc(Cl)cc2C)cc1C [Compound 111],2.23
7,CCN(C)C=Nc1ccc(-c2ccc(Cl)c(C(F)(F)F)c2)cc1F [Compound 20],2.15
8,CCN(C)C=Nc1cc(C)c(-c2ccc(C(F)(F)F)cc2)cc1C [Compound 132],2.19
9,C=CCN(C)C=Nc1cc(C)c(-c2ccc([Si](C)(C)C)cc2)cc1C [Compound 153],3.08
10,CCN(C)C=Nc1cc(C)c(-c2ccc([Si](C)(C)C)cc2)cc1C [Compound 151],2.98
11,CCN(C)C=Nc1cc(C)c(-c2ccc(Cl)c(F)c2)cc1C [Compound 41],2.32
12,CCc1cc(-c2ccc(F)cc2)ccc1N=CN(C)CC [Compound 23],1.79
13,CCN(C)C(S)=Nc1cc(C)c(-c2ccc(C(C)(C)C)cc2)cc1C [Compound 28],4.58
14,CCN(C)C=Nc1ccc(-c2ccc(Cl)cc2Cl)cc1F [Compound 86],2.05
15,CCN(C)C=Nc1ccc(-c2ccc(C(C)=NOC)cc2)cc1Cl [Compound 65],2.00
16,CCN(C)C=Nc1cc(C)c(-c2cccc(Cl)c2)cc1C [Compound 133],2.15
17,CCN(C)C=Nc1cc(C)c(-c2ccc(C)cc2)cc1C [Compound 131],2.01
18,CCN(C)C=Nc1cc(C)c(-c2ccc(OC(C)C)c(F)c2)cc1C [Compound 172],2.37
19,C=CCN(C)C=Nc1cc(C)c(-c2ccc(C(C)C)cc2)cc1C [Compound 157],2.60
20,Cc1cc(-c2ccc(C(C)(C)C)cc2)c(C)cc1N=CN1CCOCC1 [Compound 118],2.53
21,CCN(C)C=Nc1ccc(-c2ccc(OC)c(OC)c2OC)cc1C(F)(F)F [Compound 11],1.84

row,Structure (SMILES),log p (HCOOH)
1,Cc1cc(-c2ccc(C(C)C)cc2)c(C)cc1N=CN1CCCCC1 [Compound 158],2.60
2,CCN(C)C=Nc1ccc(-c2ccc(OC)c(OC)c2OC)cc1F [Compound 12],1.50
3,CCN(C)C=Nc1ccc(-c2ccc(F)cc2)cc1Cl [Compound 13],1.69
4,CCN(C)C=Nc1ccc(-c2ccc(OC)c(OC)c2)cc1F [Compound 95],1.41
5,CCN(C)C=Nc1cc(C)c(-c2ccc(F)c(Cl)c2)cc1C [Compound 137],2.02
6,CCN(C)C=Nc1cc(C)c(-c2ccccc2)cc1C [Compound 134],1.77
7,CCN(C)C=Nc1ccc(-c2cc(OC)c(OC)c(OC)c2)cc1C [Compound 29],1.56
8,CCN(C)C=Nc1ccc(-c2ccc(OC)cc2)cc1Cl [Compound 70],1.71
9,CCN(C)C=Nc1cc(C)c(-c2ccc(C=NOC)cc2)cc1C [Compound 40],2.05
10,CCN(C)C=Nc1ccc(-c2ccc(Oc3ccccc3)cc2)cc1F [Compound 90],2.20
11,CCc1cc(-c2ccc(COC)cc2)ccc1N=CN(C)CC [Compound 61],1.67
12,CCN(C)C=Nc1ccc(-c2ccc(F)cc2)cc1F [Compound 15],1.50
13,CCON=C(C)c1ccc(-c2cc(C)c(N=CN(C)CC)cc2C)cc1 [Compound 139],2.55
14,Cc1cc(-c2ccc(C(C)(C)C)cc2)c(C)cc1N=CN1CCCCC1C (stereo not shown) [Compound 117],3.02
15,CCN(C)C=Nc1cc(C)c(-c2cccc([Si](C)(C)C)c2)cc1C [Compound 179],3.00
16,CCN(C)C=Nc1ccc(-c2ccc(C=NOC)cc2)cc1C(F)(F)F [Compound 76],2.01
17,CCN(C)C=Nc1ccc(-c2ccc(F)cc2)cc1C [Compound 126],1.84
18,CCN(C)C=Nc1ccc(-c2cc(OC)c(OC)c(OC)c2)cc1Cl [Compound 63],1.58
19,CCN(C)C=Nc1cc(C)c(-c2ccc(C(C)(C)C)c(Cl)c2)cc1C [Compound 168],2.85
20,CCN(C)C=Nc1cc(C)c(-c2ccc(Cl)cc2)cc1C [Compound 125],2.18
21,CCc1cc(-c2ccc(F)c(Cl)c2)ccc1N=CN(C)CC [Compound 10],2.17

row,Structure (SMILES),log p (HCOOH)
1,CCc1cc(-c2ccc(Oc3ccccc3)cc2)ccc1N=CN(C)CC [Compound 59],2.32
2,CCN(C)C=Nc1ccc(-c2ccc(OCc3ccccc3)cc2)cc1Cl [Compound 72],2.48
3,CCN(C)C=Nc1ccc(-c2ccc(Cl)c(Cl)c2)cc1C [Compound 32],2.21
4,CCN(C)C=Nc1ccc(-c2ccc(F)cc2)cc1C(F)(F)F [Compound 14],1.93
5,Cc1ccc(-c2cc(C)c(N=CN3CCCCC3)cc2C)cc1Cl [Compound 149],2.53
6,CCN(C)C=Nc1ccc(-c2ccc(Cl)c(C)c2)cc1C [Compound 108],2.14
7,CCN(C)C=Nc1ccc(-c2ccc(OCc3ccccc3)cc2)cc1C [Compound 36],2.46
8,COc1ccc(-c2cc(OC)c(N=CN(C)C(C)C)cc2OC)cc1Cl [Compound 102],1.95
9,CCN(C)C=Nc1cc(C)c(-c2ccc(CC(C)C)cc2)cc1C [Compound 162],2.84
10,CCN(C)C=Nc1ccc(-c2ccc(OC)c(OC)c2)cc1Cl [Compound 74],1.54
11,CCN(C)C=Nc1ccc(-c2ccc(OC)c(C)c2)cc1Cl [Compound 115],1.86
12,CCN(C)C=Nc1cc(C)c(-c2ccc(F)c(F)c2)cc1C [Compound 46],1.98
13,CCc1cc(-c2ccc(Cl)cc2Cl)ccc1N=CN(C)CC [Compound 57],2.26
14,Cc1cc(-c2ccc(C(C)(C)C)cc2)c(C)cc1N=C1CCCN1 [Compound 120],2.53
15,CCN(C)C=Nc1ccc(-c2cccc(Cl)c2)c(Cl)c1 [Compound 96],1.92
16,CCN(C)C=Nc1ccc(-c2ccc(Cl)cc2Cl)cc1C(F)(F)F [Compound 85],2.39
17,CCN(C)C=Nc1cc(C)c(-c2ccc(C3CCCCC3)cc2)cc1C [Compound 165],3.18
18,CCN(C)C=Nc1ccc(-c2ccc(C(C)(C)C)cc2)cc1F [Compound 6],2.29
19,CCN(C)C=Nc1ccc(-c2ccc(C=NOC)cc2)cc1Cl [Compound 64],1.87

# Same assay, conditions: reversed-phase HPLC column (C 18); HPLC reversed-phase C 18; 40° C.; 0.1% aqueous formic acid and acetonitrile, linear gradient 10% to 90% acetonitrile; read-out: log p (HCOOH)
row,Structure (SMILES),chromatographic logP
1,"Cc1cc(-c2ccc(C(C)(C)C)cc2)c(C)cc1N=C1CCCCN1 [Compound 121, 4′-tert-butyl-2,5-dimethyl-N-[piperidin-2-ylidene]biphenyl-4-amine]",2.6

# Same assay, conditions: reversed-phase HPLC column (C 18); pH 2.3; HPLC, 0.1% aqueous formic acid and acetonitrile, 40° C.; read-out: log P (pH 2.3)
row,Structure (SMILES),chromatographic logP
1,"CCN(C)/C=N/c1cc(C)c(Br)cc1C [Intermediate (Va-1), N′-(4-bromo-2,5-dimethylphenyl)-N-ethyl-N-methylimidoformamide]",1.36
2,"Cc1cc(-c2ccc(C(C)(C)C)cc2)c(C)cc1N=C1CCCCN1 [Compound 121, 4′-tert-butyl-2,5-dimethyl-N-[piperidin-2-ylidene]biphenyl-4-amine]",2.6
